CN1C(C(=O)Nc2ccccn2)=C(O)c2sc(Cl)cc2S1(=O)=O
Conditions | solubility (mole fraction)
in PEG-400, 298.15 K | 0.00861
in PEG-400, 303.15 K | 0.0099
in PEG-400, 308.15 K | 0.0112
in PEG-400, 313.15 K | 0.013
in PEG-400, 323.15 K | 0.0171

in water
Conditions | solubility (mole fraction)
298.15 K | 2.9e-06
303.15 K | 4.11e-06
308.15 K | 5.62e-06
313.15 K | 7.41e-06
323.15 K | 1.2e-05

Source: BigSolDB 2.1
